{"source": "patent US20070021501A1", "about": "“Methods of treating epileptogenesis” (priority 2005, published 2007)", "key": {"[1]": {"tested_on": "lithium-pilocarpine model of temporal lobe epilepsy in the rat", "test": "Quantification of cell densities (neuronal counting) 14 days after Li-pilo SE (Example 2)", "conditions": "14 days after SE; for cell loss: hippocampus CA1 pyramidal cell layer", "method": "All rats received lithium chloride (3 meq/kg, i.p., Sigma, St Louis, Mo., U.S.A.) and about 20 h later, all animals received also methylscopolamine bromide (1 mg/kg, s.c., Sigma) that was administered to limit the peripheral effects of the convulsant. […] The effects of increasing doses of TC were studied in 5 groups of rats. […] The control group received vehicle instead of pilocarpine and TC.\nFor neuronal counting, animals were deeply anesthetized with 1.8 g/kg pentobarbital (Dolethal®, Vétoquinol, Lure, France). Brains were then removed and frozen. Serial 20 μm slices were cut in a cryostat, air-dried during several days before thionine staining. […] The grid of counting was placed on a well defined area of the cerebral structure of interest and counting was carried out with a microscopic enlargement of 200- or 400-fold defined for each single cerebral structure. Cell counts were performed twice on each side of three adjacent sections for each region by a single observer unaware of the animal's treatment. The number of cells obtained in the 12 counted fields in each cerebral structure was averaged. This procedure was used to minimize the potential errors that could result from double counting leading to overestimation of cell numbers. […] Counts involved only neurons with cell bodies larger than 10 μm. Cells with small cell bodies were considered as glial cells and were not counted.\nFor neuronal damage and epileptogenesis, statistical analysis between groups was performed by means of a one-way analysis of variance followed by a post-hoc Dunnett or Fisher test using the Statistica software."}, "[2]": {"tested_on": "lithium-pilocarpine status epilepticus in the rat", "test": "EEG patterns during and after Li-pilo SE (Example 1)", "assay_type": "in vivo", "protocol": "Male Wistar rats weighing 225-250 g, provided by Janvier Breeding Center (Le Genest-St-lste, France) were housed under controlled standard conditions (light/dark cycle, 7.00 a.m.-7.00 p.m. lights on), with food and water available ad libitum. All animal experimentation was performed in accordance with the rules of the European Communities Council Directive of Nov. 24, 1986 (86/609/EEC), and the French Department of Agriculture (License N^o 67-97). For electrode implantation, rats were anesthetized by an i.p. injection of 2.5 mg/kg diazepam (DZP, Valium, Roche, France) and […] ketamine chlorhydrate (Imalgene 1000, Rhone Merrieux, France). Four single-contact recording electrodes were placed on the skull, over the parietal cortex, two on each side.\nThe bilateral EEG cortical activity was recorded during the whole duration of SE and behavioral changes were noted.\nThe effects of the test compound on the EEG and on the latency to occurrence of SRS were investigated by daily video recording of the animals for 10 h per day and the recording of the electrographic activity twice a week for 8 h."}, "[3]": {"tested_on": "lithium-pilocarpine status epilepticus in the rat", "test": "Mortality over the first 48 h after Li-pilo SE (Example 2)", "assay_type": "in vivo, Sprague-Dawley rats", "protocol": "Adult male Sprague-Dawley rats provided by Janvier Breeding Center (Le Genest-St-lsle, France) were housed under controlled, uncrowded standard conditions at 20-22° C. (light/dark cycle, 7.00 a.m.-7.00 p.m. lights on), with food and water available ad libitum. All animal experimentation was performed in accordance with the rules of the European Communities Council Directive of Nov. 24, 1986 (86/609/EEC), and the French Department of Agriculture (License N^o 67-97)."}, "[4]": {"tested_on": "lithium-pilocarpine model of temporal lobe epilepsy in the rat", "test": "Latency to and frequency of spontaneous seizures, video recording (Example 2)", "assay_type": "in vivo, Sprague-Dawley rats", "protocol": "The effects of DZP and the 4 doses of TC on epileptogenesis were investigated by daily video recording of the animals for 10 h per day. Video recording was performed for 4 weeks during which the occurrence of the first seizure was noted as well as the total number of seizures over the whole period. Animals were then taken off the video recording system and kept for 4 additional weeks in our animal facilities before they were sacrificed after a total period of 8 weeks of epilepsy."}, "[5]": {"tested_on": "lithium-pilocarpine model of temporal lobe epilepsy in the rat", "test": "Quantification of cell densities in hippocampus, thalamus and cortex after Li-pilo SE (Example 1)", "assay_type": "in vivo", "conditions": "for more damage (worsening of cell loss) compared with pilo-DZP rats: TC 10 mg/kg", "protocol": "Quantification of cell densities was performed at 6 days after SE on 8 pilo-DZP, 8 pilo-TC10, 7 pilo-TC30, 7 pilo-TC60, and 6 saline-saline rats.\nCell counts were performed twice in a blind manner and were the average of at least 3 values from 2 adjacent sections in each individual animal. Counts involved only cells larger than 10 μm, smaller ones being considered as glial cells.\nFor the comparison of the characteristics of SE in pilo-saline and pilo-test compound animals, a non-paired Student's t-test was used. The comparison between the number of rats seizing in both groups was performed by means of a Chi square test. For neuronal damage, statistical analysis between groups was performed using ANOVA followed by a Fisher's test for multiple comparisons using the Statview software (Fisher R A, 1946a, Statistical Methods for Research Workers (10th edition) Oliver & Boyd, Edinburgh; Fisher R A, 1946b, The Design of Experiments (4th edition) Oliver & Boyd, Edinburgh) Behavioral and EEG Characteristics of Lithium-pilocarpine Status Epilepticus"}, "[6]": {"tested_on": "lithium-pilocarpine model of temporal lobe epilepsy in the rat", "test": "Mossy fiber sprouting in hippocampus, Timm staining (Example 1)", "assay_type": "in vivo", "protocol": "At 2 months after the onset of spontaneous recurrent seizures, mossy fiber sprouting was examined on rats in the chronic period exposed to the test compound or DZP and in 3 saline-saline rats. Animals were deeply anaesthetized and perfused transcardially with saline followed by 100 ml of 1.15% (w/v) Na2S in 0.1 M phosphate buffer, and 100 ml of 4% (v/v) formaldehyde in 0.1 M phosphate buffer. Brains were removed from skull, post-fixed in 4% formaldehyde during 3-5 h and 40 μm sections were cut on a sliding vibratome and mounted on gelatin-coated slides.\nThe following day, sections were developed in the dark in a 26° C. solution of 50% (w/v) arabic gum (160 ml), sodium citrate buffer (30 ml), 5.7% (w/v) hydroquinone (80 ml) and 10% (w/v) silver nitrate (2.5 ml) during 40-45 min. The sections were then rinsed with tap water at 40° C. during at least 45 min, rinsed rapidly with distilled water and allowed to dry. They were dehydrated in ethanol and coverslipped.\nMossy fiber sprouting was evaluated according to criteria previously described in dorsal hippocampus (Cavazos et al., 1991, J Neurosci 11:2795-2803.), which are follows: 0—no granules between the tips and crest of the DG; 1—sparse granules in the supragranular region in a patchy distribution between the tips and crest of DG; 2—more numerous granules in a continuous distribution between the tips and crest of DG; 3—prominent granules in a continuous pattern between tips and crest, with occasional patches of confluent granules between tips and crest; 4—prominent granules that form a confluent dense laminar band between tips and crest and 5—confluent dense laminar band of granules that extends into the inner molecular layer."}}}
{"compound": "NC(=O)OC[C@@H](O)c1ccccc1Cl", "note": "[TC]", "values": [{"measurement": "neurons surviving", "setting": "[1]; TC 120 mg/kg, all parts of the entorhinal cortex (range)", "value": "85-94%"}, {"measurement": "neuronal loss", "setting": "[1]; TC 120 mg/kg, hilus of dentate gyrus", "value": 53, "unit": "%"}, {"measurement": "cell loss", "setting": "[1]; TC 120 mg/kg", "value": 12, "unit": "%"}, {"measurement": "neuronal drop out", "setting": "[1]; TC 120 mg/kg, thalamic nuclei (range)", "value": "4-19%"}, {"measurement": "cell loss (drop out)", "setting": "[1]; TC30, 60 and 90 groups (range printed together with DZP group), hilus of dentate gyrus", "value": "61-66%"}, {"measurement": "cell loss", "setting": "[1]; TC30, 60 or 90 rats (range over groups)", "value": "36-47%"}, {"measurement": "EEG after injection at 24 and 48 h after SE (silent period)", "setting": "[2]; TC 10 mg/kg, between 1 and 8 h after injection", "value": "no change"}, {"measurement": "EEG by 6-7 h of SE", "setting": "[2]; TC 10 mg/kg, cortex and hippocampus", "value": "spiking activity was still present in the cortex and the hippocampus"}, {"measurement": "amplitude of the EEG by 6-7 h of SE", "setting": "[2]; TC 30 mg/kg, hippocampus", "value": "came back to baseline levels"}, {"measurement": "amplitude of the EEG by 6-7 h of SE", "setting": "[2]; TC 60 mg/kg, hippocampus and cortex", "value": "came back to baseline levels"}, {"measurement": "EEG after injection at 24 and 48 h after SE (silent period)", "setting": "[2]; TC 30 and 60 mg/kg, as soon as 10 min after injection", "value": "frequency and amplitude of PEDs decreased"}, {"measurement": "mortality over the first 48 h after SE", "setting": "[3]; TC 30 mg/kg, group devoted to cell counting at 14 days (4/12)", "value": 33, "unit": "%"}, {"measurement": "mortality over the first 48 h after SE", "setting": "[3]; TC 30 mg/kg, group devoted to latency to SRS and late cell counting (3/11)", "value": 27, "unit": "%"}, {"measurement": "mortality over the first 48 h after SE", "setting": "[3]; TC 60 mg/kg, group devoted to cell counting at 14 days (1/12)", "value": 8, "unit": "%"}, {"measurement": "mortality over the first 48 h after SE", "setting": "[3]; TC 60 mg/kg, group devoted to latency to SRS and late cell counting (0/10)", "value": 0, "unit": "%"}, {"measurement": "mortality over the first 48 h after SE", "setting": "[3]; TC 90 mg/kg, group devoted to cell counting at 14 days (0/10)", "value": 0, "unit": "%"}, {"measurement": "mortality over the first 48 h after SE", "setting": "[3]; TC 90 mg/kg, group devoted to latency to SRS and late cell counting (0/11)", "value": 0, "unit": "%"}, {"measurement": "mortality over the first 48 h after SE", "setting": "[3]; TC 120 mg/kg, group devoted to cell counting at 14 days (4/12)", "value": 33, "unit": "%"}, {"measurement": "mortality over the first 48 h after SE", "setting": "[3]; TC 120 mg/kg, group devoted to latency to SRS and late cell counting (0/9)", "value": 0, "unit": "%"}, {"measurement": "frequency of spontaneous seizures over the four weeks of recording", "setting": "[4]; TC 30 mg/kg", "value": "tendency to be higher"}, {"measurement": "percentage of rats with short latencies to seizures (shorter than 40 days after SE)", "setting": "[4]; TC 90 mg/kg (4/11)", "value": 36, "unit": "%"}, {"measurement": "percentage of non-epileptic rats (no seizure over 150 days post-SE)", "setting": "[4]; TC 120 mg/kg", "value": 45, "unit": "%"}, {"measurement": "percentage of rats with short latencies to seizures (shorter than 40 days after SE)", "setting": "[4]; TC 120 mg/kg (1/9)", "value": 11, "unit": "%"}, {"measurement": "frequency of spontaneous seizures over the four weeks of recording", "setting": "[4]; TC60, 90 and 120 groups", "value": "lower"}, {"measurement": "more damage (worsening of cell loss) compared with pilo-DZP rats", "setting": "[5]; dorsal entorhinal cortex layers III-IV", "value": 28, "unit": "%"}, {"measurement": "more damage (worsening of cell loss) compared with pilo-DZP rats", "setting": "[5]; ventral entorhinal cortex layers III-IV", "value": 35, "unit": "%"}, {"measurement": "cell loss", "setting": "[5]; TC 30 mg/kg, hippocampus CA1 pyramidal layer", "value": 35, "unit": "%"}, {"measurement": "cell loss", "setting": "[5]; TC 60 mg/kg, hippocampus CA1 pyramidal layer", "value": 16, "unit": "%"}, {"measurement": "reduction of neuronal damage recorded in the pilo-DZP rats", "setting": "[5]; TC 60 mg/kg, piriform cortex layer II", "value": 41, "unit": "%"}, {"measurement": "reduction of neuronal damage recorded in the pilo-DZP rats", "setting": "[5]; TC 60 mg/kg, piriform cortex layers III-IV", "value": 44, "unit": "%"}, {"measurement": "neuroprotection compared to pilo-DZP rats", "setting": "[5]; TC 60 mg/kg, ventral entorhinal cortex layers III-IV", "value": 31, "unit": "%"}, {"measurement": "cell loss", "setting": "[5]; pilo-test compound animals (range over doses), hilus of dentate gyrus", "value": "69-72%"}, {"measurement": "protection compared to pilo-DZP rats", "setting": "[5]; test compound 60 mg/kg, CA3b", "value": "significantly neuroprotective"}, {"measurement": "protection compared to pilo-DZP rats", "setting": "[5]; test compound, CA3a area", "value": "did not afford any protection"}, {"measurement": "mean Timm score in the upper blade of the dentate gyrus", "setting": "[6]; TC 10 mg/kg (n=7)", "value": "1.5±0.6"}, {"measurement": "mean Timm score in the upper blade of the dentate gyrus", "setting": "[6]; TC 30 mg/kg (n=10)", "value": "2.6±1.0"}, {"measurement": "mean Timm score in the upper blade of the dentate gyrus", "setting": "[6]; TC 60 mg/kg, whole group (n =11)", "value": "1.5±0.7"}]}
